The record followed here is US6551964B1, “Use of citric acid derivatives as pesticidal adjuvants” (Bayer Cropscience S.A., priority 1998, dated 2003).

Where a name gives a salt, the structure may show the parent alone.

For the assay, the system named is test species shown in Table C (common weeds). As to the kind of experiment: Herbicidal efficacy, glasshouse, all test species of Table C. Type of assay: in vivo. The conditions noted are these: adjuvant alone, experiments 26d to 29d.

Take `CCCCOC(=O)CC(CC(=O)OCCCC)(OC(C)=O)C(=O)OCCCC` [O-acetyl tri-n-butyl citrate]: the “herbicidal effects in the absence of any active ingredient” value is reported as “no herbicidal effects”. Then `CCCCOC(=O)CC(O)(CC(=O)OCCCC)C(=O)OCCCC` [tri-n-butyl citrate], with “no herbicidal effects”.
